Assay results from PMC8534003, “The Chemokine-Based Peptide, CXCL9(74-103), Inhibits Angiogenesis by Blocking Heparan Sulfate Proteoglycan-Mediated Signaling of Multiple Endothelial Growth Factors” (Cancers, 2021).

How the values were obtained:
[1] = test system: FGF-2-induced angiogenesis, C57BL/6 mice; assay: In vivo angiogenesis Matrigel plug assay; parameters: species or system mouse; conditions: data not shown
Procedure: Six-to-eight-week-old female C57BL/6 mice were anesthetized with a mixture of 2.5 mg/mL xylazine (V.M.D, Inovet, Arendonk, Belgium) and 37.5 mg/mL ketamine (Dechra, Northwich, UK) in PBS by i.p. injection. A vertical dorsal incision was made and an ALZET osmotic pump (model 1007D, DURECT Corporation, Cupertine, CA, USA) filled with 400 µg/100 µL CXCL9(74-103) or 100 µL PBS was subcutaneously (s.c.) implanted. The incision was closed with a surgical suture. Growth factor-reduced Matrigel (Corning Matrigel Growth Factor (GFR) Basement Membrane Matrix, Phenol Red-Free, LDEV-Free; Corning Life Sciences, Amsterdam, The Netherlands) was s.c. injected in the dorsal flank forming a firm plug (600 µL/plug). The Matrigel was either injected as such (control plugs) or supplemented with 300 µg CXCL9(74-103) and/or 180 ng FGF-2. Seven days later, the mice were sacrificed. Thirty minutes before sacrifice, the mice were i.v. injected with 200 µL (25 mg/kg) FITC-labeled 2000 kDa dextran (Sigma-Aldrich) to quantify vessel formation in the Matrigel plugs. Blood was collected through cardiac puncture into heparinized tubes containing 20 µL heparin (5.000 IE/mL, Leo Pharma, Ballerup, Denmark). The blood was centrifuged at 200 g and 4 °C for 10 min, whereafter the supernatant was centrifuged at 3000 g and 4 °C for 10 min. The collected plasma was stored away from light at 4 °C until analysis. The Matrigel plugs were removed and enzymatically and mechanically digested in 1.2 mL dispase (Corning Life Sciences) using an incubation at 37 °C for 1.5 h and the gentleMACS™ Dissociator (Miltenyi Biotec, Bergisch Gladbach, Germany). The digested Matrigel plugs were filtered through a 70 µm cell strainer, washed with 1.5 mL FACS buffer [2% (v/v) FCS + 2 mM EDTA in PBS] and centrifuged at 300 g and 4 °C for 7 min. The supernatant (SN) was centrifuged again at 300 g and 4 °C for 7 min and the SN was retained away from light at 4 °C until analysis. The pellet was resuspended in 1 mL FACS buffer, the cells were counted and used for flow cytometry. The antibodies used to identify endothelial cells were anti-mouse CD45-APC (clone 30-F11, eBioscience, Thermo Fisher Scientific), anti-mouse CD146-PE (clone ME-9F1) and anti-mouse Pan-endothelial Cell Antigen-BV711 (clone MECA-32) antibodies (both BD Biosciences). Mice experiments were approved by the Ethical Committee of KU Leuven (project number P199/2018).

phospho-ERK1/2 = assay: Signal transduction assay, VEGF165-induced ERK phosphorylation in MECs (ELISA); type: cell-based, mouse; conditions: murine VEGF165 5 ng/mL 5 min, peptide 1 µM, n ≥ 3
Procedure: HMVECs and MECs were seeded in 6-well plates at 1.25 × 10^5 cells/well in their respective culture medium. Once the cell density reached 70–80% confluency, the cells were starved in serum-free medium overnight. Fifteen minutes prior to stimulation, cells were incubated with various concentrations of CXCL9(74-103) or CXCL9(86-103) in 0.5% (v/v) BSA in MCDB131 or DMEM medium (assay medium for HMVECs and MECs, respectively) at 37 °C. HMVECs and MECs were stimulated with assay medium alone or supplemented with 10 ng/mL EGF or 5 ng/mL murine VEGF165 at 37 °C for 15 or 5 min, respectively. Then, the cells were placed on ice, washed with ice-cold PBS and 90 µL of lysis buffer [1% (v/v) protease inhibitor cocktail, phosphatase inhibitor cocktail 2 and 3 (all Sigma-Aldrich) in 1 mM ethylenediaminetetraacetic acid (EDTA), 0.5% (v/v) Triton™ X-100, 5 mM NaF, 6 M urea in PBS] was added per well. […] The amount of phospho-ERK1/2 in the cell lysates was determined using an ERK1 (Thr202/Tyr204)/ERK2 (Thr185/Tyr187) ELISA duoset (R&D Systems) according to the manufacturer’s instructions. The amount of phosphorylated ERK was normalized to the total protein content in the samples measured by the Pierce™ bicinchoninic acid (BCA) protein assay kit (Thermo Fisher Scientific).

[2] = test system: heparan sulfate (HS) / VEGF165; assay: ELISA-like GAG binding assay, competition with VEGF165 for HS binding; parameters: species or system human; conditions: HS 25 µg/mL, pH 7.2, 37 °C, 2 h, n = 5
Procedure: The ability of the CXCL9-derived peptides to compete with VEGF165 for HS binding was assessed in an ELISA-like GAG binding assay. First, the GAG binding plates (Galen Laboratory Supplies, North Haven, CT, USA) were coated with 25 µg/mL HS (Iduron, Alderley Edge, UK) in standard assay buffer (SAB) [100 mM NaCl, 50 mM sodium acetate, 0.2% (v/v) Tween® 20 in ultrapure water, pH 7.2] at room temperature overnight. The plates were washed with SAB and blocked with blocking buffer [SAB supplemented with 0.2% (w/v) gelatin] at 37 °C for 1 h to prevent nonspecific binding. Then, dilutions of VEGF165 and the peptides, CXCL9(74-103) or CXCL9(86-103), were added and allowed to interact at 37 °C for 2 h. Unbound material was removed through washing and biotinylated polyclonal goat anti-human VEGF165 antibody (PeproTech) in blocking buffer was added to interact with HS-bound VEGF165 at 37 °C for 1 h. Following additional washing steps, detection was performed with streptavidin-horseradish peroxidase (HRP) (R&D Systems) in blocking buffer at 37 °C for 30 min and conversion of 3,3’,5,5’-tetramethylbenzidine (TMB) to a colorimetric signal in the presence of 0.015% (v/v) H2O2. The reaction was stopped by the addition of H2SO4 and the absorbance was measured at 450 nm. All incubation steps were performed in the dark.

**Q.** How did the “FGF-2-induced angiogenesis in the Matrigel plug assay” value [1] turn out when KKVLKVRKSQRSRQKKTT [CXCL9(86-103)] was run?
**A.** no anti-angiogenic activity

**Q.** And the “VEGF165-induced ERK phosphorylation” value (phospho-ERK1/2)?
**A.** did not result in a reduction of VEGF165-induced ERK phosphorylation

**Q.** And the “inhibition of VEGF165 binding to HS” value ([2]; 30-fold molar excess of peptide over VEGF165)?
**A.** ≈ 20%

**Q.** What about the “inhibition of VEGF165 binding to HS” value ([2]; 300-fold molar excess of peptide over VEGF165) of the same sequence?
**A.** 40%
